{
  "source": "patent US20170275298A1",
  "about": "“INHIBITORS OF THE RENAL OUTER MEDULLARY POTASSIUM CHANNEL” (Merck Sharp & Dohme Corp., priority 2014, published 2017)",
  "note": "pIC50: −log10 of the molar value.",
  "data": [
    {"target": "T1, hROMK (hKir1.1) (Homo sapiens, UniProt P48048)", "T1 construct": "expressed in transfected cells", "T1 sequence (P48048 1-391)": "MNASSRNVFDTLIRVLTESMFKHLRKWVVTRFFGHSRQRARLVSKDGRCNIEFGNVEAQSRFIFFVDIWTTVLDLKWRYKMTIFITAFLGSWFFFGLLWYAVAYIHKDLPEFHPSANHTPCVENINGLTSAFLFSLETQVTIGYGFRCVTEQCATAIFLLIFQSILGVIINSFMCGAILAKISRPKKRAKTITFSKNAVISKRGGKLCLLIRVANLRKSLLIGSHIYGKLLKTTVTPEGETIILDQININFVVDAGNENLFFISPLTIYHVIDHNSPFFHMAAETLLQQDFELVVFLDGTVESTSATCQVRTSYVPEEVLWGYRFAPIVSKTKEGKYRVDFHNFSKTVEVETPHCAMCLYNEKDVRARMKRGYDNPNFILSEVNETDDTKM", "assay": "Thallium Flux Assay (ROMK channel functional thallium flux assay)", "format": "cell-based", "details": "HEK293 cells stably expressing hROMK (hKir1.1); FluxOR thallium flux, FLIPR-Tetra, 30 min compound incubation; read-out: ROMK TI IC50", "procedure": "The following Thallium Flux Assay was performed on each of the final product compounds in the Examples.\nHEK293 cells stably expressing hROMK (hKir1.1) were grown at 37° C. in a 10% CO2 humidified incubator in complete growth media: Dulbecco's Modified Eagle Medium supplemented with non-essential amino acids, Penicillin/Streptomycin/Glutamine, G418 and FBS. At >80% confluency, the media was aspirated from the flask and rinsed with 10 mL calcium/magnesium-free PBS. […] To dislodge the cell, the side of the flask was gently banged with one's hand. The cells completely titrated and then the cells were transferred to 25 mL complete media, centrifuged at 1,500 rpm for 6 min followed by resuspension in complete growth media and determine cell concentration. […] Under ideal growth conditions and appropriate tissue culture practices, this cell line is stable for 40-45 passages.\n• FluxOR™ Reagent (Component A) • FluxOR™ Assay Buffer (Component B)—10× Concentrate • PowerLoad™ Concentrate (Component C)—100× Concentrate • Probenecid (Component D)—Lyophilized sample is kept at −20° C. Water soluble, 100× after solubilization in 1 mL water. […] Store at 4° C. • Thallium sulfate (Tl2SO4) Concentrate (Component G)—50 mM in water. Store at 4° C. • DMSO (dimethyl sulfoxide, Component H)—1 mL (100%)\nCan be stored at room temperature • Stimulant Buffer (prepared at 5× final concentration in 1×FluxOR™ Chloride-Free Buffer): 7.5 mM thallium sulfate and 0.75 mM potassium sulfate (to give a final assay concentration of 3 mM Thallium/0.3 mM potassium). Store at 4° C. when not in use. If kept sterile, this solution is good for months.\nThe ROMK channel functional thallium flux assay was performed in 384 wells, using the FLIPR-Tetra instrument. HEK-hKir1.1 cells were seeded in Poly-D-Lysine microplates and kept in a 37° C.-10% CO2 incubator overnight. On the day of the experiment, the growth media was replaced with the FluxOR™ reagent loading buffer and incubated, protected from light, at ambient temperature (23-25° C.) for 90 min. The loading buffer was replaced with assay buffer±test compound followed by 30 min incubation at ambient temperature, where the thallium/potassium stimulant was added to the microplate.\n1. Seed HEK-hKir1.1 cells (50 μl at 20,000 cells/well) in 384-well PDL coated Microplates 2. Allow cells to adhere overnight in humidified 37° C./10% CO2 incubator 3. Completely remove cell growth media from microplate and replace with 25 μl loading buffer 4. Incubate Microplate at room temperature, protected form light, for 90 min 5. Remove loading buffer and replace with 25 μl 1× Assay Buffer±test compound. 6. Incubate microplate at room temperature, protected from light, for 30 min 7. […] Excitation=400 nm, Emission=460 & 580 nm. Collect data for ˜10 min.\nThe fluorescence intensity of wells containing 3 μM of a standard control ROMK inhibitor of the present invention was used to define the ROMK-sensitive component of thallium flux. Fluorescence in the presence of test compounds was normalized to control values to provide % fluorescence change.", "values": [
      {"smiles": "CCc1nccc(N2CCC3(CCN(C[C@H](O)c4ccc5c(c4C)COC5=O)CC3)C2=O)n1", "note": "[Example 45, (R)-2-(2-ethylpyrimidin-4-yl)-8-(2-hydroxy-2-(4-methyl-1-oxo-1,3-dihydroisobenzofuran-5-yl)ethyl)-2,8-diazaspiro[4.5]decan-1-one]", "pIC50": 6.45},
      {"smiles": "Cc1c([C@@H](O)CN2CCC3(CC2)CCN(c2ccnc(N)n2)C3=O)ccc2c1COC2=O", "note": "[Example 46, (R)-2-(2-aminopyrimidin-4-yl)-8-(2-hydroxy-2-(4-methyl-1-oxo-1,3-dihydroisobenzofuran-5-yl)ethyl)-2,8-diazaspiro[4.5]decan-1-one]", "pIC50": 6.31},
      {"smiles": "CNc1nccc(N2CCC3(CCN(C[C@H](O)c4ccc5c(c4C)COC5=O)CC3)C2=O)n1", "note": "[Example 47, (R)-8-(2-hydroxy-2-(4-methyl-1-oxo-1,3-dihydroisobenzofuran-5-yl)ethyl)-2-(2-(methylamino)pyrimidin-4-yl)-2,8-diazaspiro[4.5]decan-1-one]", "pIC50": 7.23},
      {"smiles": "Cc1c([C@@H](O)CN2CCC3(CC2)CCN(c2cnn(C)c(=O)c2)C3=O)ccc2c1COC2=O", "note": "[Example 49, (R)-8-(2-hydroxy-2-(4-methyl-1-oxo-1,3-dihydroisobenzofuran-5-yl)ethyl)-2-(1-methyl-6-oxo-1,6-dihydropyridazin-4-yl)-2,8-diazaspiro[4.5]decan-1-one]", "pIC50": 6.75},
      {"smiles": "COc1cc(N2CCC3(CCN(C[C@H](O)c4ccc5c(c4C)COC5=O)CC3)C2=O)cnn1", "note": "[Example 50, (R)-8-(2-hydroxy-2-(4-methyl-1-oxo-1,3-dihydroisobenzofuran-5-yl)ethyl)-2-(6-methoxypyridazin-4-yl)-2,8-diazaspiro[4.5]decan-1-one]", "pIC50": 6.32},
      {"smiles": "CCn1nc(N2CCC3(CCN(C[C@H](O)c4ccc5c(c4C)COC5=O)CC3)C2=O)ccc1=O", "note": "[Example 51, (R)-2-(1-ethyl-6-oxo-1,6-dihydropyridazin-3-yl)-8-(2-hydroxy-2-(4-methyl-1-oxo-1,3-dihydroisobenzofuran-5-yl)ethyl)-2,8-diazaspiro[4.5]decan-1-one]", "pIC50": 7.11},
      {"smiles": "Cc1c([C@@H](O)CN2CCC3(CC2)CCN(c2cc(C)c(=O)n(C)n2)C3=O)ccc2c1COC2=O", "note": "[Example 52, (R)-2-(1,5-dimethyl-6-oxo-1,6-dihydropyridazin-3-yl)-8-(2-hydroxy-2-(4-methyl-1-oxo-1,3-dihydroisobenzofuran-5-yl)ethyl)-2,8-diazaspiro[4.5]decan-1-one]", "pIC50": 6.37},
      {"smiles": "Cc1c([C@@H](O)CN2CCC3(CC2)CCN(c2ccc(=O)n(C4CC4)n2)C3=O)ccc2c1COC2=O", "note": "[Example 53, (R)-2-(1-cyclopropyl-6-oxo-1,6-dihydropyridazin-3-yl)-8-(2-hydroxy-2-(4-methyl-1-oxo-1,3-dihydroisobenzofuran-5-yl)ethyl)-2,8-diazaspiro[4.5]decan-1-one]", "pIC50": 7.39},
      {"smiles": "Cc1c([C@@H](O)CN2CCC3(CC2)CCN(c2ccc(=O)n(C(F)F)c2)C3=O)ccc2c1COC2=O", "note": "[Example 54, (R)-2-(1-(difluoromethyl)-6-oxo-1,6-dihydropyridin-3-yl)-8-(2-hydroxy-2-(4-methyl-1-oxo-1,3-dihydroisobenzofuran-5-yl)ethyl)-2,8-diazaspiro[4.5]decan-1-one]", "pIC50": 6.53},
      {"smiles": "Cc1c([C@@H](O)CN2CCC3(CC2)CCN(c2ccc(=O)n(C(F)F)n2)C3=O)ccc2c1COC2=O", "note": "[Example 55, (R)-2-(1-(difluoromethyl)-6-oxo-1,6-dihydropyridazin-3-yl)-8-(2-hydroxy-2-(4-methyl-1-oxo-1,3-dihydroisobenzofuran-5-yl)ethyl)-2,8-diazaspiro[4.5]decan-1-one]", "pIC50": 6.87},
      {"smiles": "Cc1c([C@@H](O)CN2CCC3(CC2)CCN(c2ccc(=O)n(C)n2)C3=O)ccc2c1COC2=O", "note": "[Example 56, (R)-8-(2-hydroxy-2-(4-methyl-1-oxo-1,3-dihydroisobenzofuran-5-yl)ethyl)-2-(1-methyl-6-oxo-1,6-dihydropyridazin-3-yl)-2,8-diazaspiro[4.5]decan-1-one]", "pIC50": 7.45},
      {"smiles": "Cc1c([C@@H](O)CN2CCC3(CC2)CC(=O)N(c2ccns2)C3)ccc2c1COC2=O", "note": "[Example 61, (R)-8-(2-hydroxy-2-(4-methyl-1-oxo-1,3-dihydroisobenzofuran-5-yl)ethyl)-2-(isothiazol-5-yl)-2,8-diazaspiro[4.5]decan-3-one]", "pIC50": 6.26},
      {"smiles": "CCOC(=O)c1cc(N2CCC3(CCN(C[C@H](O)c4ccc5c(c4C)COC5=O)CC3)C2=O)on1", "note": "[Example 64, (R)-ethyl 5-(8-(2-hydroxy-2-(4-methyl-1-oxo-1,3-dihydroisobenzofuran-5-yl)ethyl)-1-oxo-2,8-diazaspiro[4.5]decan-2-yl)isoxazole-3-carboxylate]", "pIC50": 6.62},
      {"smiles": "Cc1cc(N2CCC3(CCN(C[C@H](O)c4ccc5c(c4C)COC5=O)CC3)C2=O)sn1", "note": "[Example 66, (R)-8-(2-hydroxy-2-(4-methyl-1-oxo-1,3-dihydroisobenzofuran-5-yl)ethyl)-2-(3-methylisothiazol-5-yl)-2,8-diazaspiro[4.5]decan-1-one]", "pIC50": 7.76},
      {"smiles": "Cc1c([C@@H](O)CN2CCC3(CC2)CCN(c2ccncn2)C3=O)ccc2c1COC2=O", "note": "[Example 67, (R)-8-(2-hydroxy-2-(4-methyl-1-oxo-1,3-dihydroisobenzofuran-5-yl)ethyl)-2-(pyrimidin-4-yl)-2,8-diazaspiro[4.5]decan-1-one]", "pIC50": 6.36},
      {"smiles": "Cc1cc2c(cc1[C@@H](O)CN1CCC3(CC1)CCN(c1ccns1)C3=O)COC2=O", "note": "[Example 68, (R)-8-(2-hydroxy-2-(6-methyl-1-oxo-1,3-dihydroisobenzofuran-5-yl)ethyl)-2-(isothiazol-5-yl)-2,8-diazaspiro[4.5]decan-1-one]", "pIC50": 6.66},
      {"smiles": "Cc1cc2c(cc1[C@H](O)CN1CCC3(CC1)CCN(c1ccns1)C3=O)COC2=O", "note": "[Example 69, (S)-8-(2-hydroxy-2-(6-methyl-1-oxo-1,3-dihydroisobenzofuran-5-yl)ethyl)-2-(isothiazol-5-yl)-2,8-diazaspiro[4.5]decan-1-one]", "pIC50": 6.17},
      {"smiles": "COc1cc([C@@H](O)CN2CCC3(CC2)CCN(c2ccns2)C3=O)ncc1C#N", "note": "[Example 70, (S)-6-(1-hydroxy-2-(2-(isothiazol-5-yl)-1-oxo-2,8-diazaspiro[4.5]decan-8-yl)ethyl)-4-methoxynicotinonitrile]", "pIC50": 6.16},
      {"smiles": "Cc1nsc(N2CCC3(CCN(C[C@H](O)c4ccc5c(c4C)COC5=O)CC3)C2=O)n1", "note": "[Example 71, (R)-8-(2-hydroxy-2-(4-methyl-1-oxo-1,3-dihydroisobenzofuran-5-yl)ethyl)-2-(3-methyl-1,2,4-thiadiazol-5-yl)-2,8-diazaspiro[4.5]decan-1-one]", "pIC50": 7.43},
      {"smiles": "Cc1c([C@@H](O)CN2CCC3(CC2)CCN(c2cnsc2)C3=O)ccc2c1COC2=O", "note": "[Example 72, (R)-8-(2-hydroxy-2-(4-methyl-1-oxo-1,3-dihydroisobenzofuran-5-yl)ethyl)-2-(isothiazol-4-yl)-2,8-diazaspiro[4.5]decan-1-one]", "pIC50": 7.70},
      {"smiles": "Cc1c([C@@H](O)CN2CCC3(CC2)CCN(c2ccncc2F)C3=O)ccc2c1COC2=O", "note": "[Example 73, (R)-2-(3-fluoropyridin-4-yl)-8-(2-hydroxy-2-(4-methyl-1-oxo-1,3-dihydroisobenzofuran-5-yl)ethyl)-2,8-diazaspiro[4.5]decan-1-one]", "pIC50": 6.38},
      {"smiles": "COc1cc(N2CCC3(CCN(C[C@H](O)c4ccc5c(c4C)COC5=O)CC3)C2=O)ccn1", "note": "[Example 74, (R)-8-(2-hydroxy-2-(4-methyl-1-oxo-1,3-dihydroisobenzofuran-5-yl)ethyl)-2-(2-methoxypyridin-4-yl)-2,8-diazaspiro[4.5]decan-1-one]", "pIC50": 7.25}
    ]}
  ]
}
